Measurements reported in PubChem BioAssay (NCI).
“And” between values parts separate entries of the source, which are not always exact repeats. Identical values can stand only once.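 These data come from cells grown in 96-well plates and exposed to compound for 48 hours at five concentrations. Definition used: TGI = concentration required for complete inhibition of growth.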

Columns and labels:
Assay in all cases: NCI anticancer screen, dose series, 48 h
CAKI-1 renal = tested on: CAKI-1 renal
MALME-3M melanoma = tested on: MALME-3M melanoma
MDA-MB-231 breast = tested on: MDA-MB-231 breast
NCI-H522 lung = tested on: NCI-H522 lung
OVCAR-8 ovarian = tested on: OVCAR-8 ovarian
PC-3 prostate = tested on: PC-3 prostate
SK-MEL-2 melanoma = tested on: SK-MEL-2 melanoma
SNB-19 CNS = tested on: SNB-19 CNS
SNB-75 CNS = tested on: SNB-75 CNS
786-0 renal = tested on: 786-0 renal
BT-549 breast = tested on: BT-549 breast

Row | Compound | TGI (CAKI-1 renal) | TGI (MALME-3M melanoma) | TGI (MDA-MB-231 breast) | TGI (NCI-H522 lung) | TGI (OVCAR-8 ovarian) | TGI (PC-3 prostate) | TGI (SK-MEL-2 melanoma) | TGI (SNB-19 CNS) | TGI (SNB-75 CNS) [µM] | TGI (786-0 renal) | TGI (BT-549 breast)
1 | C[N+](C)(CCO)CCN1c2ccccc2Sc2ccccc21 | > 10 µM | > 10 µM | > 10 µM | > 10 µM | > 10 µM | > 10 µM | > 10 µM | > 10 µM | > 10 |  | 
2 | Cc1nnc2n1N=C(c1cc(F)c(Cl)cc1Cl)/C(=C/c1ccc3c(c1)OCO3)S2 | > 100 µM | > 100 µM | > 100 µM | 78.2 µM | > 100 µM | > 100 µM | > 100 µM | > 100 µM |  | > 100 µM | > 100 µM
3 | COc1ccc(C2=NN(C(=O)c3cccnc3)C(O)(c3cc(F)c(Cl)cc3Cl)C2)cc1OC (centres undefined) | > 100 µM | 59.1 µM | 37.9 µM | 34.9 µM | 35.7 µM | 43.3 µM | 32 µM | > 100 µM | 62.9 | 62.2 µM | 41.5 µM
4 | COc1ccc(C2C(C=O)C(N3CCN(C)CC3)=Nc3nc4ccccc4n32)cc1 (centres undefined) | 52.4 µM | 26.3 µM | 31.4 µM | 25.6 µM | 33.1 µM | 36.9 µM | 31.2 µM | 41 µM | 31.3 | > 100 µM | 29.4 µM
5 | NC(CC(=O)O)(Cc1ccccc1)C(=O)O (centres undefined) | > 100 µM | > 100 µM | > 100 µM | > 100 µM | > 100 µM | > 100 µM | > 100 µM | > 100 µM | > 100 | > 100 µM | > 100 µM
6 | O=C(NNC(=O)c1nsc2ccccc12)c1ccc(Cl)cc1 |  |  |  |  | 72.8 µM |  | 45.7 µM | 42.3 µM | 15.6 |  | 
7 | Cc1ccc(SSCCCCCS(=O)O)cc1 |  | > 100 µM |  | 27.9 µM |  |  | 59.2 µM | > 100 µM | 63.1 |  | 
8 | COc1ccc(C)cc1Nc1nnc(-c2ccc(N)cc2)s1 | > 100 µM | > 100 µM |  | > 100 µM | > 100 µM | > 100 µM | > 100 µM | > 100 µM | > 100 | > 100 µM | > 100 µM
9 | CN(C)CCCN1c2ccccc2CCc2cc([N+](=O)[O-])ccc21 | 59.7 µM and 32.2 µM | 33.8 µM and 32.9 µM | 52.7 µM and 30.2 µM | 60.6 µM and 31 µM | 71.8 µM and 30 µM | 76.8 µM and 34.3 µM | 39.4 µM and 38.8 µM | > 100 µM and 31.7 µM | 26.4 | 66 µM and 28.9 µM | 45 µM and 31.3 µM
10 | CCOC(=O)c1c(CN2CCCC2)n(-c2ccccc2)c2cc(Br)c(OC)cc12 | > 100 µM | 30.4 µM | 70.4 µM | 31.6 µM | > 100 µM | 77.2 µM | 38.3 µM | > 100 µM | 62.5 | 32 µM | 58.1 µM
11 | COc1cc2c(cc1OC)-c1cc3ccc(OC)c(OC)c3c[n+]1CC2 | > 100 µM | > 100 µM | > 100 µM | > 100 µM | > 100 µM | > 100 µM | > 100 µM | 68 µM | > 100 | > 100 µM | > 100 µM
